Results published in PubChem BioAssay AID1963435 (Molecular Pharmacology Branch, DTP, NCI, 2024).
pIC50: −log10 of the molar value.

Tested on: PANC-1 complex spheroid growth, percent test/control
Test: Anticancer human tumor PANC-1 cell line growth inhibition [Asc];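 further: spheroids exposed to agents for 7 days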;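 on viability, T/C: percent viability relative to DMSO vehicle wells taken as 100%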
Conditions: for pIC50: curve of first compound; for viability, T/C: stronger effect = lower value
Outline: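 Tumor cells were grown as complex spheroids with human endothelial cells (HUVEC) and human mesenchymal stem cells as stroma. Agents were tested alone and in combination, in half-log steps down from the clinical Cmax, or from 10 microM where Cmax was unknown.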

## NC(=O)C(=Cn1cnc(-c2cc(C(F)(F)F)cc(C(F)(F)F)c2)n1)c1cncnc1 + CNC(C)C(=O)NC1CN(S(=O)(=O)c2cccc(S(=O)(=O)N3CCC4CCC(C(=O)NC(c5ccccc5)c5ccccc5)N4C(=O)C(NC(=O)C(C)NC)C3)c2)CCC2CCC(C(=O)NC(c3ccccc3)c3ccccc3)N2C1=O
Second compound 0.00316 µM
  pIC50: < 6.52
Second compound 0.01 µM
  pIC50: < 6.52
Second compound 0.0316 µM
  pIC50: < 6.52
Second compound 0.1 µM
  pIC50: < 6.52
Second compound 0.316 µM
  pIC50: < 6.52
Second compound 1 µM
  pIC50: < 6.52
Second compound 0.00316 µM, first compound 0.000949 µM
  viability, T/C: 103%
Second compound 0.00316 µM, first compound 0.003 µM
  viability, T/C: 80.5%
Second compound 0.00316 µM, first compound 0.00949 µM
  viability, T/C: 90.2%
Second compound 0.00316 µM, first compound 0.03 µM
  viability, T/C: 91.6%
Second compound 0.00316 µM, first compound 0.0949 µM
  viability, T/C: 102%
Second compound 0.00316 µM, first compound 0.3 µM
  viability, T/C: 95.3%
Second compound 0.01 µM, first compound 0.000949 µM
  viability, T/C: 87%
Second compound 0.01 µM, first compound 0.003 µM
  viability, T/C: 89.9%
Second compound 0.01 µM, first compound 0.00949 µM
  viability, T/C: 89.3%
Second compound 0.01 µM, first compound 0.03 µM
  viability, T/C: 87.6%
Second compound 0.01 µM, first compound 0.0949 µM
  viability, T/C: 95.3%
Second compound 0.01 µM, first compound 0.3 µM
  viability, T/C: 85.2%
Second compound 0.0316 µM, first compound 0.000949 µM
  viability, T/C: 82%
Second compound 0.0316 µM, first compound 0.003 µM
  viability, T/C: 91.4%
Second compound 0.0316 µM, first compound 0.00949 µM
  viability, T/C: 83.3%
Second compound 0.0316 µM, first compound 0.03 µM
  viability, T/C: 81%
Second compound 0.0316 µM, first compound 0.0949 µM
  viability, T/C: 90.5%
Second compound 0.0316 µM, first compound 0.3 µM
  viability, T/C: 78.3%
Second compound 0.1 µM, first compound 0.000949 µM
  viability, T/C: 84%
Second compound 0.1 µM, first compound 0.003 µM
  viability, T/C: 83.1%
Second compound 0.1 µM, first compound 0.00949 µM
  viability, T/C: 79.9%
Second compound 0.1 µM, first compound 0.03 µM
  viability, T/C: 91.3%
Second compound 0.1 µM, first compound 0.0949 µM
  viability, T/C: 102%
Second compound 0.1 µM, first compound 0.3 µM
  viability, T/C: 80.5%
Second compound 0.316 µM, first compound 0.000949 µM
  viability, T/C: 89.2%
Second compound 0.316 µM, first compound 0.003 µM
  viability, T/C: 78%
Second compound 0.316 µM, first compound 0.00949 µM
  viability, T/C: 79.2%
Second compound 0.316 µM, first compound 0.03 µM
  viability, T/C: 81.5%
Second compound 0.316 µM, first compound 0.0949 µM
  viability, T/C: 103%
Second compound 0.316 µM, first compound 0.3 µM
  viability, T/C: 71.9%
Second compound 1 µM, first compound 0.000949 µM
  viability, T/C: 78.3%
Second compound 1 µM, first compound 0.003 µM
  viability, T/C: 90.7%
Second compound 1 µM, first compound 0.00949 µM
  viability, T/C: 79.7%
Second compound 1 µM, first compound 0.03 µM
  viability, T/C: 85.3%
Second compound 1 µM, first compound 0.0949 µM
  viability, T/C: 88.8%
Second compound 1 µM, first compound 0.3 µM
  viability, T/C: 66.7%
